According to ChEMBL document CHEMBL1773000, “Synthesis and biological activity of 22-deoxo-23-oxa analogues of saponin OSW-1” (J Med Chem, 2011):
The source made the active and inactive calls. No cut-off for these calls is given here.

What was measured:
[1] = system: CCRF-CEM; experiment: Induction of cell cycle arrest in human CEM cells assessed as increase in accumulation of cells at S-phase after 24 hrs by flow cytometric analysis relative to untreated control; format: functional, cell-based
[2] = system: CCRF-CEM; experiment: Induction of apoptosis in human CEM cells assessed as increase in caspase-3 activity using Ac-DEVD-AMC as a substrate at 1 uM after 24 hrs by fluorescence microplate reader assay relative to untreated control; format: functional
[3] = system: CCRF-CEM; experiment: Induction of apoptosis in human CEM cells assessed as increase in caspase-7 activity using Ac-DEVD-AMC as a substrate at 2 uM after 24 hrs by fluorescence microplate reader assay relative to untreated control; format: functional
[4] = system: MCF7; experiment: Cytotoxicity against human MCF7 cells assessed as viable cells after 72 hrs by calcein AM assay; format: functional, cell-based; conditions: MCF7, 72 h
[5] = Cytotoxicity against human T98 cells assessed as viable cells after 72 hrs by calcein AM assay; format: functional, cell-based; conditions: T98, 72 h
[6] = system: A549; experiment: Cytotoxicity against human A549 cells assessed as viable cells after 72 hrs by calcein AM assay; format: functional, cell-based; conditions: A549, 72 h
[7] = system: CCRF-CEM; experiment: Induction of apoptosis in human CEM cells assessed as increase in caspase-3 activity using Ac-DEVD-AMC as a substrate at 2 uM after 24 hrs by fluorescence microplate reader assay relative to untreated control; format: functional
[8] = system: HOS; experiment: Cytotoxicity against human HOS cells assessed as viable cells after 72 hrs by calcein AM assay; format: functional, cell-based
[9] = system: HCT-116; experiment: Cytotoxicity against human HCT116 assessed as viable cells after 72 hrs by calcein AM assay; format: functional, cell-based; conditions: HCT-116, 72 h
[10] = system: CCRF-CEM; experiment: Induction of apoptosis in human CEM cells assessed as increase in caspase-7 activity using Ac-DEVD-AMC as a substrate at 5 uM after 24 hrs by fluorescence microplate reader assay relative to untreated control; format: functional
[11] = system: HeLa; experiment: Cytotoxicity against human HeLa cells assessed as viable cells after 72 hrs by calcein AM assay; format: functional, cell-based
[12] = system: G-361; experiment: Cytotoxicity against human G361 cells assessed as viable cells after 72 hrs by calcein AM assay; format: functional, cell-based; conditions: G-361, 72 h
[13] = system: CCRF-CEM; experiment: Induction of apoptosis in human CEM cells assessed as increase in Bcl-2 protein level after 24 hrs by Western blot analysis relative to untreated control; format: functional, cell-based
[14] = system: CCRF-CEM; experiment: Cytotoxicity against human CEM cells assessed as viable cells after 72 hrs by calcein AM assay; format: functional, cell-based
[15] = system: CCRF-CEM; experiment: Induction of apoptosis in human CEM cells assessed as increase in amount of DNA at subG1-phase after 24 hrs by flow cytometric analysis relative to untreated control; format: functional, cell-based
[16] = system: CCRF-CEM; experiment: Induction of cell cycle arrest in human CEM cells assessed as increase in accumulation of cells at G2/M-phase after 24 hrs by flow cytometric analysis relative to untreated control; format: functional, cell-based
[17] = system: CCRF-CEM; experiment: Induction of apoptosis in human CEM cells assessed as cleavage of PARP at 1 to 5 uM after 24 hrs by Western blot analysis relative to untreated control; format: functional, cell-based
[18] = system: CCRF-CEM; experiment: Induction of apoptosis in human CEM cells assessed as accumulation of caspase-3 after 24 hrs by Western blot analysis relative to untreated control; format: functional, cell-based
[19] = system: CCRF-CEM; experiment: Induction of apoptosis in human CEM cells assessed as effect on […] protein expression at 1 to 5 uM after 24 hrs by Western blot analysis relative to untreated control; format: functional, cell-based
[20] = system: CCRF-CEM; experiment: Induction of apoptosis in human CEM cells assessed as effect on retinoblastoma protein expression at 1 to 5 uM after 24 hrs by Western blot analysis relative to untreated control; format: functional, cell-based
[21] = system: CCRF-CEM; experiment: Induction of cell cycle arrest in human CEM cells assessed as reduction in accumulation of cells at G0/G1-phase after 24 hrs by flow cytometric analysis relative to untreated control; format: functional, cell-based
[22] = system: CCRF-CEM; experiment: Induction of apoptosis in human CEM cells assessed as increase in caspase-7 activity using Ac-DEVD-AMC as a substrate at 1 uM after 24 hrs by fluorescence microplate reader assay relative to untreated control; format: functional
[23] = system: CCRF-CEM; experiment: Induction of apoptosis in human CEM cells assessed as increase in caspase-3 activity using Ac-DEVD-AMC as a substrate at 5 uM after 24 hrs by fluorescence microplate reader assay relative to untreated control; format: functional
[24] = system: BJ; experiment: Cytotoxicity against human BJ cells assessed as viable cells after 72 hrs by calcein AM assay; format: cell-based
[25] = system: CCRF-CEM; experiment: Induction of apoptosis in human CEM cells assessed as increase in caspase-7 activity using Ac-DEVD-AMC as a substrate at 7.5 uM after 24 hrs by fluorescence microplate reader assay relative to untreated control; format: functional
[26] = system: CCRF-CEM; experiment: Induction of apoptosis in human CEM cells assessed as increase in caspase-3 activity using Ac-DEVD-AMC as a substrate at 10 uM after 24 hrs by fluorescence microplate reader assay relative to untreated control; format: functional
[27] = system: CCRF-CEM; experiment: Induction of apoptosis in human CEM cells assessed as increase in caspase-3 activity using Ac-DEVD-AMC as a substrate at 7.5 uM after 24 hrs by fluorescence microplate reader assay relative to untreated control; format: functional
[28] = system: CCRF-CEM; experiment: Induction of apoptosis in human CEM cells assessed as effect on […] protein expression at 5 to 10 uM after 24 hrs by Western blot analysis relative to untreated control; format: functional, cell-based
[29] = system: CCRF-CEM; experiment: Induction of apoptosis in human CEM cells assessed as effect on retinoblastoma protein expression at 5 to 10 uM after 24 hrs by Western blot analysis relative to untreated control; format: functional, cell-based
[30] = system: CCRF-CEM; experiment: Induction of apoptosis in human CEM cells assessed as increase in caspase-7 activity using Ac-DEVD-AMC as a substrate at 10 uM after 24 hrs by fluorescence microplate reader assay relative to untreated control; format: functional
[31] = system: CCRF-CEM; experiment: Induction of apoptosis in human CEM cells assessed as cleavage of PARP at 5 to 10 uM after 24 hrs by Western blot analysis relative to untreated control; format: functional, cell-based
[32] = system: CCRF-CEM; experiment: Induction of apoptosis in human CEM cells assessed as effect on […] protein expression at 0.1 to 0.5 uM after 24 hrs by Western blot analysis relative to untreated control; format: functional, cell-based
[33] = system: CCRF-CEM; experiment: Induction of apoptosis in human CEM cells assessed as increase in caspase-7 activity using Ac-DEVD-AMC as a substrate at 0.25 uM after 24 hrs by fluorescence microplate reader assay relative to untreated control; format: functional
[34] = system: CCRF-CEM; experiment: Induction of apoptosis in human CEM cells assessed as effect on retinoblastoma protein expression at 0.1 to 0.5 uM after 24 hrs by Western blot analysis relative to untreated control; format: functional, cell-based
[35] = system: CCRF-CEM; experiment: Induction of apoptosis in human CEM cells assessed as increase in caspase-7 activity using Ac-DEVD-AMC as a substrate at 0.5 uM after 24 hrs by fluorescence microplate reader assay relative to untreated control; format: functional
[36] = system: CCRF-CEM; experiment: Induction of apoptosis in human CEM cells assessed as cleavage of PARP at 0.1 to 0.5 uM after 24 hrs by Western blot analysis relative to untreated control; format: functional, cell-based
[37] = system: CCRF-CEM; experiment: Induction of apoptosis in human CEM cells assessed as increase in caspase-3 activity using Ac-DEVD-AMC as a substrate at 0.25 uM after 24 hrs by fluorescence microplate reader assay relative to untreated control; format: functional
[38] = system: CCRF-CEM; experiment: Induction of apoptosis in human CEM cells assessed as increase in caspase-3 activity using Ac-DEVD-AMC as a substrate at 0.5 uM after 24 hrs by fluorescence microplate reader assay relative to untreated control; format: functional

COc1ccc(C(=O)OC[C@@H](C)[C@@]2(O)[C@@H](O[C@@H]3OC[C@H](O)[C@H](O[C@@H]4OC[C@@H](O)[C@H](O)[C@H]4OC(=O)c4ccc(OC)cc4)[C@H]3OC(C)=O)C[C@H]3[C@@H]4CC=C5C[C@@H](O)CC[C@]5(C)[C@H]4CC[C@@]32C)cc1
Activity [1]: Dose-dependent effect | fold change (FC) [2]: 2.1 | fold change (FC) [3]: 1.7 | IC50 [4]: 410 nM | IC50 [5]: 55 nM | IC50 [6]: 570 nM | fold change (FC) [7]: 1.7 | IC50 [8]: 5400 nM | IC50 [9]: 5000 nM | fold change (FC) [10]: 1.8 | IC50 [11]: 340 nM | IC50 [12]: 170 nM | Activity [13]: Dose-dependent effect | IC50 [14]: 57 nM | Activity [15]: Active | Activity [16]: Dose-dependent effect | Activity [17]: Active | Activity [18]: Dose-dependent effect | Activity [19]: inactive | Activity [20]: inactive | Activity [21]: Dose-dependent effect | fold change (FC) [22]: 2.1 | fold change (FC) [23]: 1.8 | IC50 [24]: 39 nM

C/C=C/C(=O)OC[C@@H](C)[C@@]1(O)[C@@H](O[C@@H]2OC[C@H](O)[C@H](O[C@@H]3OC[C@@H](O)[C@H](O)[C@H]3OC(=O)c3ccc(OC)cc3)[C@H]2OC(C)=O)C[C@H]2[C@@H]3CC=C4C[C@@H](O)CC[C@]4(C)[C@H]3CC[C@@]21C
Activity [1]: Dose-dependent effect | fold change (FC) [25]: 3 | IC50 [4]: 840 nM | IC50 [5]: 940 nM | fold change (FC) [26]: 3 | fold change (FC) [27]: 3 | IC50 [6]: 550 nM | IC50 [8]: > 50000 nM | Activity [28]: inactive | IC50 [9]: > 50000 nM | IC50 [11]: 1940 nM | IC50 [12]: 890 nM | Activity [13]: Dose-dependent effect | IC50 [14]: 340 nM | Activity [15]: Active | Activity [16]: Dose-dependent effect | Activity [18]: Dose-dependent effect | Activity [29]: inactive | Activity [21]: Dose-dependent effect | fold change (FC) [30]: 3 | Activity [31]: Active | IC50 [24]: 230 nM

C=CCCCCCCCCC(=O)OC[C@@H](C)[C@@]1(O)[C@@H](O[C@@H]2OC[C@H](O)[C@H](O[C@@H]3OC[C@@H](O)[C@H](O)[C@H]3OC(=O)c3ccc(OC)cc3)[C@H]2OC(C)=O)C[C@H]2[C@@H]3CC=C4C[C@@H](O)CC[C@]4(C)[C@H]3CC[C@@]21C
Activity [1]: Dose-dependent effect | IC50 [4]: 29 nM | IC50 [5]: 7 nM | IC50 [6]: 600 nM | IC50 [8]: 1940 nM | IC50 [9]: 2600 nM | IC50 [11]: 103 nM | IC50 [12]: 6.7 nM | Activity [32]: inactive | IC50 [14]: 6.1 nM | Activity [16]: Dose-dependent effect | Activity [18]: Dose-dependent effect | fold change (FC) [33]: 2.5 | Activity [34]: inactive | Activity [21]: Dose-dependent effect | fold change (FC) [35]: 2.5 | IC50 [24]: 3 nM | Activity [36]: Active | fold change (FC) [37]: 2.5 | fold change (FC) [38]: 2.5
